What all share (format): physicochemical
A short description of data set [1]: Stability tests on crystal forms of acid addition salts: high-temperature test and accelerated test, 4 weeks. The settings on record: for stability under accelerated conditions: 40° C.±2° C./75% RH±5% RH; for stability under high temperature conditions: 60±2° C.
A short description of data set [2]: Stability studies under relatively harsh conditions (40° C., 40° C./75% RH, 60° C., 60° C./75% RH) on crystal forms I and II.
A short description of data set [3]: Dynamic vapor sorption (DVS) hygroscopicity. Here is the method: DVS curves are acquired on DVS Intrinsic from SMS (Surface Measurement Systems). • Testing temperature: 25° C. • Sample amount: 10-20 mg • dm/dt: 0.002%/min; • RH range: 0% RH-95% RH-0% RH • RH gradient: 10%
A short description of data set [4]: Competitive experiments of crystal forms I and II by adding crystal seeds (different water activities). The settings on record: room temperature, 3 days. Here is the method: To confirm stability of the crystal forms at room temperature, the following competitive experiments were conducted for the crystal forms I and II:
The suspensions were stirred for 24 hours at room temperature, and all systems had solid residues. All systems were centrifuged and the supernatants were taken. […] The resulting suspensions were sonicated for 1 minute, stirred for 3 days at room temperature, and sampled to detect the crystal form.

A short description of data set [5]: Approximate solubility test of the free base of nepicastat. The settings on record: for solubility: thermodynamic from solid, approximate solubility. Here is the method: In order to select a suitable method for salt form screening, an approximate solubility test was conducted on the compound. The test method was as follows: about 4 mg of the free base of nepicastat was weighed, an appropriate volume of a solvent was added gradually thereto and shaken to observe whether the free base was dissolved, and the volumes of the solvent were recorded, including the volume that enabled complete dissolution and the previous volume of the solvent that was not able to completely dissolve the free base. For poor solubility, the total amount of the solvent added was no more than 4 mL. The approximate solubility thereof was calculated.

The nature of data set [6]: Approximate solubility test on crystal forms of hydrochloride salt of nepicastat at room temperature. The settings on record: purified water.
A short description of data set [7]: Approximate solubility tests on crystal forms of acid addition salts of nepicastat in water (room temperature).

Converted amounts (≈) assume the structure as drawn.

`NCc1c[nH]c(=S)n1C1CCc2c(F)cc(F)cc2C1.O=C(O)CC(O)(CC(=O)O)C(=O)O` (stereo not shown) [crystal form I of citrate salt, citrate salt of nepicastat]: in data set [1], the “stability under accelerated conditions” value is given as “stable” and the “stability under high temperature conditions” value is recorded as “the impurities increased”.

As to `NCc1c[nH]c(=S)n1[C@H]1CCc2c(F)cc(F)cc2C1.O=C(O)/C=C/C(=O)O` [crystal form I of fumarate salt, fumarate salt of nepicastat], in data set [1], the “stability under accelerated conditions” value was “stable” and the “stability under high temperature conditions” value was “the impurities increased”.

Take `CS(=O)(=O)O.NCc1c[nH]c(=S)n1[C@H]1CCc2c(F)cc(F)cc2C1` [crystal form I of methanesulfonate salt, methanesulfonate salt of nepicastat]: in data set [1], the “stability under accelerated conditions” value is given as “stable” and the “stability under high temperature conditions” value is reported as “stable”.

As for `NCc1c[nH]c(=S)n1[C@H]1CCc2c(F)cc(F)cc2C1.O=P(O)(O)O` [crystal form I of phosphate salt, phosphate salt of nepicastat], in data set [1], the “stability under accelerated conditions” value was “stable” and the “stability under high temperature conditions” value is “the impurities slightly increased”.

Take `Cl.NCc1c[nH]c(=S)n1[C@H]1CCc2c(F)cc(F)cc2C1` [crystal form II of hydrochloride salt, hydrochloride salt of nepicastat]: the “crystal form stability (XRPD pattern)” value in data set [2] (40° C.) is “converted into the crystal form III”; in data set [2] (40° C./75% RH, 15 days) it was “the crystal form did not change”; in data set [2] (60° C., 15 days), “converted into the crystal form III”; in data set [2] (60° C./75% RH, 15 days), “the crystal form did not change”. Further, the “hygroscopicity of the sample” value in data set [3] (DVS, 0% RH to 80% RH) is listed as “slight hygroscopicity”. The “weight gain by hygroscopicity” value in data set [3] (DVS, from 0% RH to 80% RH, 25° C.) is given as “about 0.453%”. Also, the “crystal form before and after the DVS test” value in data set [3] (XRPD before and after DVS) is “remained unchanged”. In addition, the “stability in competitive experiment” value is “could exist stably” in data set [4] (ethanol-water mixed solutions with lower water activity (0.291-0.750)) and “not as good as that of the crystal form I” in data set [4] (purified water).

For the molecule `NCc1c[nH]c(=S)n1[C@H]1CCc2c(F)cc(F)cc2C1.NCc1c[nH]c(=S)n1[C@H]1CCc2c(F)cc(F)cc2C1.O=S(=O)(O)O` [crystal form II of sulfate salt (1:0.5), sulfate salt of nepicastat], in data set [1], the “stability under accelerated conditions” value was “stable” and the “stability under high temperature conditions” value is reported as “the impurities increased”.

Consider `NCc1c[nH]c(=S)n1[C@H]1CCc2c(F)cc(F)cc2C1.O=S(=O)(O)O` [crystal form III of sulfate salt (1:1), bisulfate salt of nepicastat], for which, in data set [1], the “stability under accelerated conditions” value was “stable” and the “stability under high temperature conditions” value is reported as “the impurities increased”.

Turning to `NCc1c[nH]c(=S)n1[C@H]1CCc2c(F)cc(F)cc2C1` [free base of nepicastat, Nepicastat], the “approximate solubility (qualitative)” value in data set [5] (in dichloromethane:methanol (1:1, V:V), methanol, acetone and ethanol) is “higher solubility”. Further, the solubility (usually how much of the substance goes into solution per volume) in data set [5] (organic solvent or mixture, solvent 2-Methyltetrahydrofuran) is under 1000 µg/mL; in data set [5] (organic solvent or mixture, solvent Acetone), 4000 to 5000 µg/mL (≈ 13.5 to 16.9 mM); in data set [5] (organic solvent or mixture, solvent Dichloromethane), under 1000 µg/mL; in data set [5] (organic solvent or mixture, solvent Dichloromethane:methanol (1:1)), 19700 to 39300 µg/mL (≈ 66.7 to 133 mM); in data set [5] (organic solvent or mixture, solvent Ethanol) it was 2900 to 3400 µg/mL (≈ 9.82 to 11.5 mM); in data set [5] (organic solvent or mixture, solvent Ethyl acetate), under 1000 µg/mL. The solubility in data set [5] (organic solvent or mixture, solvent Methanol) is 6900 to 10300 µg/mL (≈ 23.4 to 34.9 mM); in data set [5] (organic solvent or mixture, solvent Methyl tert-butyl ether) it was under 1000 µg/mL; in data set [5] (organic solvent or mixture, solvent N-heptane) it was under 1000 µg/mL; in data set [5] (solvent Purified water) it was under 1000 µg/mL.

Consider `Cl.NCc1c[nH]c(=S)n1[C@H]1CCc2c(F)cc(F)cc2C1` [hydrochloride salt of nepicastat], for which, in data set [6], the “solubility in purified water” value was found to be 7400 µg/mL.

As to “maleate salt of nepicastat [crystal form I of maleate salt]”, the Approximate solubility in data set [7] (in purified water, at room temperature, calculated by the salt) is 1.8~3.6 mg/mL. Moreover, the “solubility in purified water compared with other candidate salt forms” value in data set [7] (purified water, room temperature) is given as “slightly higher than that of other candidate salt forms”. For the same molecule, in data set [1], the “stability under accelerated conditions” value is listed as “stable” and the “stability under high temperature conditions” value is reported as “stable”.

These data come from US20260062388A1, “POLYMORPHIC FORM OF NEPICASTAT ACID ADDITION SALT, PREPARATION METHOD THEREFOR AND USE THEREOF” (Jiangsu Yahong Meditech Co., Ltd., priority 2022, published 2026).
